Measured values: ChEMBL document CHEMBL1629414, “A neuroprotective sulfone of marine origin and the in vivo anti-inflammatory activity of an analogue” (Eur J Med Chem, 2010)
Calls of active or inactive are those of the source. The calls are words filed in the database; no cut-off is given here.

Assays:
RAW264.7 [1] = assay: Antiinflammatory activity in mouse RAW264.7 cells assessed as inhibition of LPS-induced expression of iNOS at 10 uM treated 10 mins before LPS challenge measured after 16 hrs by Western blotting relative to control; type: functional; set-up: scale not given: the % may be the effect or the level left
RAW264.7 [2] = assay: Antiinflammatory activity in mouse RAW264.7 cells assessed as inhibition of LPS-induced expression of COX2 at 10 uM treated 10 mins before LPS challenge measured after 16 hrs by Western blotting relative to control; type: functional; set-up: scale not given: the % may be the effect or the level left
SH-SY5Y [3] = assay: Neuroprotective activity in human SH-SY5Y cells assessed as protection against 6-OHDA-induced cytotoxicity at 1 uM pretreated 1 hr before 6-OHDA challenge measured after 15 hrs by Alamar blue assay; type: functional, cell-based
RAW264.7 [4] = assay: Antiinflammatory activity in mouse RAW264.7 cells assessed as inhibition of LPS-induced expression of iNOS after treated 10 mins before LPS challenge measured after 16 hrs by Western blotting; type: functional, cell-based
RAW264.7 [5] = assay: Antiinflammatory activity in mouse RAW264.7 cells assessed as inhibition of LPS-induced expression of COX-2 treated 10 mins before LPS challenge measured after 16 hrs by Western blotting; type: functional, cell-based
RAW264.7 [6] = assay: Cytotoxicity against mouse RAW264.7 cells assessed as inhibition of beta-actin expression at 50 uM by Western blotting; type: cell-based; conditions: raw264.7, 50 µM
Rattus norvegicus [7] = assay: Antinociceptive activity in chronic constriction injury neuropathic pain Wistar rat model assessed as reduction of paw withdrawal latency at 0.1 to 5 ug, administered intrathecally after 20 mins; type: functional, organism-based
Rattus norvegicus [8] = assay: Antiatherosclerotic activity against balloon injury-induced angioplasty in Wistar rat assessed as inhibition of neointimal proliferation at 3 mg/kg/day, sc relative to control; type: functional; set-up: scale not given: the % may be the effect or the level left; conditions: route subcutaneous
Rattus norvegicus [9] = assay: Protection against encephalomyelitis-induced clinical signs in Lewis rat preimmunized with Freund's complete adjuvant at 30 ug/kg, administered intrathecally bid for 5 days from day 7 after immunization; type: functional, organism-based
Rattus norvegicus [10] = assay: Antinociceptive activity in chronic constriction injury neuropathic pain Wistar rat model assessed as reduction of paw withdrawal latency at 5 ug, administered intrathecally after 20 to 120 mins; type: functional, organism-based
Rattus norvegicus [11] = assay: Antinociceptive activity in intrathecally dosed chronic constriction injury neuropathic pain Wistar rat model assessed as reduction of paw withdrawal latency measured up to 120 mins; type: functional
Rattus norvegicus [12] = assay: Toxicity in chronic constriction injury neuropathic pain Wistar rat model assessed as effect on locomotor activity at 0.1 to 5 ug, administered intrathecally; type: organism-based; conditions: in vivo, icv_or_intrathecal
Rattus norvegicus [13] = assay: Toxicity in Lewis rat assessed as neurological deffects at 30 ug/kg, administered intrathecally bid for 5 days; type: organism-based; conditions: in vivo, icv_or_intrathecal, 0.03 mg/kg, 120 h
RAW264.7 [14] = assay: Cytotoxicity against mouse RAW264.7 cells assessed as inhibition of beta-actin expression at 30 uM by Western blotting; type: cell-based; conditions: raw264.7, 30 µM
[15] = Solubility of the compound in water; type: physicochemical
SH-SY5Y [16] = assay: Neuroprotective activity in human SH-SY5Y cells assessed as protection against 6-OHDA-induced cytotoxicity pretreated 1 hr before 6-OHDA challenge measured after 15 hrs by Alamar blue assay; type: functional

Q: Which Activity (RAW264.7 [1]) does the source give for `CC(=O)CCSCCO` here?
A: The Activity was 59.5%.

Q: What about the Activity (RAW264.7 [2]) of the same compound?
A: Its Activity is 91.2%.

Q: For `CC(=O)CCS(=O)(=O)CCO`, which Activity (SH-SY5Y [3]) is on record?
A: Its Activity is “inactive”.

Q: And the IC50 (RAW264.7 [4])?
A: Its IC50 is 3.6 µM.

Q: What about the IC50 (RAW264.7 [5]) of the same compound?
A: The IC50 was 32.1 µM.

Q: And the Activity (RAW264.7 [6])?
A: The Activity was “Toxic”.

Q: What about the Activity (Rattus norvegicus [7]) of the same compound?
A: Its Activity is “Active”.

Q: What about the Activity (Rattus norvegicus [8]) of the same compound?
A: The Activity was 98.1%.

Q: And the Activity (Rattus norvegicus [9])?
A: The Activity was “Active”.

Q: What about the Activity (Rattus norvegicus [10]) of the same compound?
A: Its Activity is “Active”.

Q: And the ED50 (Rattus norvegicus [11])?
A: Its ED50 is 0.75 µg.

Q: What about the Activity (Rattus norvegicus [12]) of the same compound?
A: Its Activity is “Non-toxic”.

Q: What about the Activity (Rattus norvegicus [13]) of the same compound?
A: Its Activity is “Non-toxic”.

Q: With `C=CS(=O)(=O)CCC(C)=O` [AUSTRASULFONE] as the compound, how does the Activity (RAW264.7 [14]) read?
A: Its Activity is “Toxic”.

Q: What about the solubility [15] of the same compound?
A: The solubility was > 50 mg/mL.

Q: What about the Activity (SH-SY5Y [16]) of the same compound?
A: Its Activity is “Dose-dependent effect”.

Q: And the EC50 (SH-SY5Y [16]; read-out: ED50 (the source's name))?
A: Its EC50 is 11 nM.
